# According to ChEMBL document CHEMBL4138146, “A Schmidt rearrangement-mediated synthesis of novel tetrahydro-benzo[1,4]diazepin-5-ones as potential anticancer and antiprotozoal agents” (Eur J Med Chem, 2017):
# What was measured:
# Format in all cases: functional
# HL-60(TB) = assay: Growth inhibition of human HL-60(TB) cells assessed as cell growth at 10^-6 M incubated for 48 hrs by sulforhodamine B assay relative to control; settings: HL-60, 48 h, read-out: Activity
# ACHN = assay: Growth inhibition of human ACHN cells assessed as cell growth at 10^-6 M incubated for 48 hrs by sulforhodamine B assay relative to control; settings: read-out: Activity
# TK-10 = assay: Growth inhibition of human TK10 cells assessed as cell growth at 10^-8 M incubated for 48 hrs by sulforhodamine B assay relative to control; settings: TK-10, 48 h, read-out: Activity
# Malme-3M = assay: Growth inhibition of human MALME-3M cells assessed as cell growth at 10^-7 M incubated for 48 hrs by sulforhodamine B assay relative to control; settings: read-out: Activity
# KM12 [1] = assay: Growth inhibition of human KM12 cells assessed as cell growth at 10^-8 M incubated for 48 hrs by sulforhodamine B assay relative to control; settings: KM12, 48 h, read-out: Activity
# OVCAR-4 = assay: Growth inhibition of human OVCAR4 cells assessed as cell growth at 10^-8 M incubated for 48 hrs by sulforhodamine B assay relative to control; settings: OVCAR-4, 48 h, read-out: Activity
# IGROV-1 [2] = assay: Growth inhibition of human IGROV1 cells assessed as cell growth at 10^-5 M incubated for 48 hrs by sulforhodamine B assay relative to control; settings: IGROV-1, 48 h, read-out: Activity
# SK-MEL-5 = assay: Growth inhibition of human SK-MEL-5 cells assessed as cell growth at 10^-5 M incubated for 48 hrs by sulforhodamine B assay relative to control; settings: SK-MEL-5, 48 h, read-out: Activity
# SR [3] = assay: Growth inhibition of human SR cells assessed as cell growth at 10^-7 M incubated for 48 hrs by sulforhodamine B assay relative to control; settings: read-out: Activity
# HCT-15 [4] = assay: Growth inhibition of human HCT15 cells assessed as cell growth at 10^-8 M incubated for 48 hrs by sulforhodamine B assay relative to control; settings: HCT-15, 48 h, read-out: Activity
# SNB-75 = assay: Growth inhibition of human SNB75 cells assessed as cell growth at 10^-5 M incubated for 48 hrs by sulforhodamine B assay relative to control; settings: SNB-75, 48 h, read-out: Activity
# SW-620 = assay: Growth inhibition of human SW620 cells assessed as cell growth at 10^-7 M incubated for 48 hrs by sulforhodamine B assay relative to control; settings: SW-620, 48 h, read-out: Activity
# UACC-257 = assay: Growth inhibition of human UACC257 cells assessed as cell growth at 10^-8 M incubated for 48 hrs by sulforhodamine B assay relative to control; settings: UACC-257, 48 h, read-out: Activity
# OVCAR-8 = assay: Growth inhibition of human OVCAR8 cells assessed as cell growth at 10^-6 M incubated for 48 hrs by sulforhodamine B assay relative to control; settings: OVCAR-8, 48 h, read-out: Activity
# LOX IMVI [5] = assay: Growth inhibition of human LOXIMVI cells assessed as cell growth at 10^-4 M incubated for 48 hrs by sulforhodamine B assay relative to control; settings: read-out: Activity
# IGROV-1 [6] = assay: Growth inhibition of human IGROV1 cells assessed as cell growth at 10^-8 M incubated for 48 hrs by sulforhodamine B assay relative to control; settings: IGROV-1, 48 h, read-out: Activity
# EKVX [7] = assay: Growth inhibition of human EKVX cells assessed as cell growth at 10^-5 M incubated for 48 hrs by sulforhodamine B assay relative to control; settings: read-out: Activity
# MDA-MB-435 = assay: Growth inhibition of human MDA-MB-435 cells assessed as cell growth at 10^-5 M incubated for 48 hrs by sulforhodamine B assay relative to control; settings: MDA-MB-435, 48 h, read-out: Activity
# SN12C = assay: Growth inhibition of human SN12C cells assessed as cell growth at 10^-4 M incubated for 48 hrs by sulforhodamine B assay relative to control; settings: read-out: Activity
# HCT-116 = assay: Growth inhibition of human HCT116 cells assessed as cell growth at 10^-4 M incubated for 48 hrs by sulforhodamine B assay relative to control; settings: HCT-116, 48 h, read-out: Activity
# NCI-H23 = assay: Growth inhibition of human NCI-H23 cells assessed as cell growth at 10^-7 M incubated for 48 hrs by sulforhodamine B assay relative to control; settings: NCI-H23, 48 h, read-out: Activity
# MOLT-4 = assay: Growth inhibition of human MOLT4 cells assessed as cell growth at 10^-6 M incubated for 48 hrs by sulforhodamine B assay relative to control; settings: MOLT-4, 48 h, read-out: Activity
# EKVX [8] = assay: Growth inhibition of human EKVX cells assessed as cell growth at 10^-7 M incubated for 48 hrs by sulforhodamine B assay relative to control; settings: read-out: Activity
# LOX IMVI [9] = assay: Growth inhibition of human LOXIMVI cells assessed as cell growth at 10^-6 M incubated for 48 hrs by sulforhodamine B assay relative to control; settings: read-out: Activity
# SR [10] = assay: Growth inhibition of human SR cells assessed as cell growth at 10^-8 M incubated for 48 hrs by sulforhodamine B assay relative to control; settings: read-out: Activity
# 786-0 = assay: Growth inhibition of human 786-0 cells assessed as cell growth at 10^-5 M incubated for 48 hrs by sulforhodamine B assay relative to control; settings: 786-0, 48 h, read-out: Activity
# HCT-15 [11] = assay: Growth inhibition of human HCT15 cells assessed as cell growth at 10^-4 M incubated for 48 hrs by sulforhodamine B assay relative to control; settings: HCT-15, 48 h, read-out: Activity
# SNB-19 = assay: Growth inhibition of human SNB19 cells assessed as cell growth at 10^-4 M incubated for 48 hrs by sulforhodamine B assay relative to control; settings: SNB-19, 48 h, read-out: Activity
# RPMI-8226 = assay: Growth inhibition of human RPMI8226 cells assessed as cell growth at 10^-7 M incubated for 48 hrs by sulforhodamine B assay relative to control; settings: RPMI-8226, 48 h, read-out: Activity
# EKVX [12] = assay: Growth inhibition of human EKVX cells assessed as cell growth at 10^-6 M incubated for 48 hrs by sulforhodamine B assay relative to control; settings: read-out: Activity
# CCRF-CEM = assay: Growth inhibition of human CCRF-CEM cells assessed as cell growth at 10^-4 M incubated for 48 hrs by sulforhodamine B assay relative to control; settings: read-out: Activity
# A549 = assay: Growth inhibition of human A549/ATCC cells assessed as cell growth at 10^-6 M incubated for 48 hrs by sulforhodamine B assay relative to control; settings: A549, 48 h, read-out: Activity
# KM12 [13] = assay: Growth inhibition of human KM12 cells assessed as cell growth at 10^-4 M incubated for 48 hrs by sulforhodamine B assay relative to control; settings: KM12, 48 h, read-out: Activity
# SF-539 = assay: Growth inhibition of human SF539 cells assessed as cell growth at 10^-6 M incubated for 48 hrs by sulforhodamine B assay relative to control; settings: SF-539, 48 h, read-out: Activity
# PC-3 = assay: Growth inhibition of human PC3 cells assessed as cell growth at 10^-5 M incubated for 48 hrs by sulforhodamine B assay relative to control; settings: PC-3, 48 h, read-out: Activity
smiles,measurement,setting,value
CCCCOc1nc2ccccc2cc1C1CNC(=O)c2ccccc2N1 (stereo not given),growth at 1 µM,HL-60(TB),-19%
same,growth at 1 µM,ACHN,91%
same,growth at 0.01 µM,TK-10,75%
same,growth at 0.1 µM,Malme-3M,92%
same,growth at 0.01 µM,KM12 [1],98%
same,growth at 0.01 µM,OVCAR-4,92%
same,growth at 10 µM,IGROV-1 [2],31%
same,growth at 10 µM,SK-MEL-5,10%
same,growth at 0.1 µM,SR [3],64%
same,growth at 0.01 µM,HCT-15 [4],95%
same,growth at 10 µM,SNB-75,13%
same,growth at 0.1 µM,SW-620,96%
same,growth at 0.01 µM,UACC-257,97%
same,growth at 1 µM,OVCAR-8,94%
same,growth at 100 µM,LOX IMVI [5],-81%
same,growth at 0.01 µM,IGROV-1 [6],97%
same,growth at 10 µM,EKVX [7],31%
same,growth at 10 µM,MDA-MB-435,-58%
same,growth at 100 µM,SN12C,-53%
same,growth at 100 µM,HCT-116,-67%
same,growth at 0.1 µM,NCI-H23,95%
same,growth at 1 µM,MOLT-4,92%
same,growth at 0.1 µM,EKVX [8],97%
same,growth at 1 µM,LOX IMVI [9],80%
same,growth at 0.01 µM,SR [10],86%
same,growth at 10 µM,786-0,1%
same,growth at 100 µM,HCT-15 [11],-74%
same,growth at 100 µM,SNB-19,-5%
same,growth at 0.1 µM,RPMI-8226,98%
same,growth at 1 µM,EKVX [12],89%
same,growth at 100 µM,CCRF-CEM,-17%
same,growth at 1 µM,A549,96%
same,growth at 100 µM,KM12 [13],-2%
same,growth at 1 µM,SF-539,85%
same,growth at 10 µM,PC-3,9%
